This is an account of results in patent US20250186396A1, “COMPOSITIONS AND METHODS FOR THE TREATMENT OF GLIOBLASTOMA WITH A DUAL TARGETING ANTI-TUMOR COMPOSITION” (Northwestern University, priority 2023, published 2025).

For the test, the system named is CT2A tumors. Briefly: Flow cytometry of tumor-derived immune cells, CT2A tumors. The class given is in vivo, C57BL/6 mice. Conditions: for CD45+CD3+CD8+CD69+ activated T cells / CD45+CD3+CD8+IFN-γ+ activated T cells: CT2A tumors. The protocol: Mice and Intracranial Xenograft Tumor Models. Female C57BL/6 mice at 3 to 4 weeks of age were purchased from the Jackson Laboratory (#0000664). All animals were grouped by 5 mice per cage and maintained in IVC System (San Diego, CA) for a week before the experiment. All animal experiments were performed with the approval of the Institutional Animal Care and Use Committee (IACUC) at Northwestern University. The intracranial xenograft tumor models were established previously. In brief, mice were anesthetized by isoflurane through IMPAC6 Anesthesia System. Then a dental drill was used to open a small hole in the skull of mice 1.2 mm anterior and 3.0 mm lateral to the bregma. Mice were placed into the stereotactic apparatus, and 5 μL 005 GSC, CT2A, or GL261 cells in FBS-free culture medium were injected into the right caudate nucleus 3 mm below the surface of the brain using a 10 μL Hamilton syringe with an unbeveled 30-gauge needle. The incision was closed using Vetbond glue. Meloxicam (20 mg/kg, daily) was subcutaneously injected for pain relief for 3 days after surgery. Mice received the treatment with BAPN (2 g/L in drinking water) on day 4, SR9009 (100 mg/kg body weight, i.p.) daily for 10 days beginning at day 7 post-orthotopic injection, anti-PD1 (10 mg/kg body weight, i.p.) on days 11, 14, and 17 post-orthotopic injection, and/or clodronate liposomes (200 μL, once every 3 days) starting at day 4 post-orthotopic injection. Mice with neurological deficits or moribund appearance were sacrificed according to the IACUC protocol. At the end of the experiment, the brains of mice were collected, either fixed in 4% paraformaldehyde (PFA) (ThermoFisher Scientific, #J61899.AK) after transcardiac perfusion with PBS for optimal cutting temperature (OCT)-cryosectioning or processed using the percoll density gradient cell separation method to isolate tumor-derived immune cells for flow cytometry analysis.
Tumor-derived immune cells isolation. Mice with neurologic deficits or moribund appearance were sacrificed to harvest their brains. Immune cells in the brain tumors were isolated using the percoll density gradient cell separation method as previously described. In brief, after perfusion with PBS, brains were homogenized on ice with pre-cold 10 mL HBSS. Then cells were spun down at 1,500 rpm for 10 minutes at 4° C., and were resuspended in 30% Percoll (GE Healthcare, #17-0891-01). The solution was gently laid on top of the 70% Percoll and centrifuged at 1,200 g for 30 minutes at 4° C. with accelerator 7 and breaker 0. After removing myelin and debris, the interphase was collected and centrifuged at 1,500 rpm for 10 minutes at 4° C. The cell pellet was resuspended for further analysis.
Flow cytometry. The single-cell suspensions were incubated with fixable viability dye (Invitrogen, #5211229035) on ice for 10 minutes. After washing with FACS buffer, cells were incubated with the TruStain FcX (anti-mouse CD16/32) Antibody (BioLegend, #103132) and True-Stain Monocyte Blocker (BioLegend, #426102) in 5% BSA for 30 minutes on ice to block Fc receptors and non-specific binding of the cyanine acceptor fluorophores. Different antibody cocktails, including Percp/Cy5.5 anti-mouse CD45 (BioLegend, […]), AF488 anti-mouse CD3 (BioLegend, #100210), BV711 anti-mouse CD8 (BioLegend, #100747), PE/Cy7 anti-mouse CD69 (BioLegend, #104512), APC/Cy7 anti-mouse IFN-γ (BioLegend, #505850), PE/Cy7 anti-mouse/human CD11b (BioLegend, #101216), PE anti-mouse CD68 (BD Bioscience, #566386), and BV421 anti-mouse CX3CR1 (BD Bioscience, #567531) were added to the samples and incubated for 30 minutes on ice. After washing with FACS buffer, cells were incubated with fixation buffer (BioLegend, #420801) overnight. Samples were read through the BD FACSymphony or BD LSRFortessa flow cytometer and analyzed in FlowJo v10.8.1.

The mark [1] stands for this setting: size matched CT2A tumors, BAPN 2 g/L in drinking water.

Regarding `N#CCCN` [BAPN, β-aminopropionitrile], the “CD45+CD3+CD8+CD69+ activated T cells” value is reported as “Increases” and the “CD45+CD3+CD8+IFN-γ+ activated T cells” value is given as “Increases”. Besides, under setting [1], the “CD45highCD11b+CD68+ macrophages” value is recorded as “decreased” and the “CD45lowCD11b+CX3CR1+ microglia” value is recorded as “increased”.
As for `CCOC(=O)N1CCC(CN(Cc2ccc(Cl)cc2)Cc2ccc([N+](=O)[O-])s2)C1` (stereo not drawn) [SR9009], the “CD45+CD3+CD8+CD69+ activated T cells” value is listed as “Increases” and the “CD45+CD3+CD8+IFN-γ+ activated T cells” value is on record as “Increases”.
